Measurements as given in ChEMBL document CHEMBL1909046, “DrugMatrix in vitro pharmacology data”.

Columns and labels:
[1] = target: T1, Receptor-type tyrosine-protein phosphatase C (Homo sapiens, UniProt P08575); design: species or system Escherichia coli;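 note: inhibition of CD45 enzyme activity measured using DiFMUP as substrate; in other assays of this panel Not Active means under 50% inhibition at 10 µM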
T1 sequence (P08575 whole entry): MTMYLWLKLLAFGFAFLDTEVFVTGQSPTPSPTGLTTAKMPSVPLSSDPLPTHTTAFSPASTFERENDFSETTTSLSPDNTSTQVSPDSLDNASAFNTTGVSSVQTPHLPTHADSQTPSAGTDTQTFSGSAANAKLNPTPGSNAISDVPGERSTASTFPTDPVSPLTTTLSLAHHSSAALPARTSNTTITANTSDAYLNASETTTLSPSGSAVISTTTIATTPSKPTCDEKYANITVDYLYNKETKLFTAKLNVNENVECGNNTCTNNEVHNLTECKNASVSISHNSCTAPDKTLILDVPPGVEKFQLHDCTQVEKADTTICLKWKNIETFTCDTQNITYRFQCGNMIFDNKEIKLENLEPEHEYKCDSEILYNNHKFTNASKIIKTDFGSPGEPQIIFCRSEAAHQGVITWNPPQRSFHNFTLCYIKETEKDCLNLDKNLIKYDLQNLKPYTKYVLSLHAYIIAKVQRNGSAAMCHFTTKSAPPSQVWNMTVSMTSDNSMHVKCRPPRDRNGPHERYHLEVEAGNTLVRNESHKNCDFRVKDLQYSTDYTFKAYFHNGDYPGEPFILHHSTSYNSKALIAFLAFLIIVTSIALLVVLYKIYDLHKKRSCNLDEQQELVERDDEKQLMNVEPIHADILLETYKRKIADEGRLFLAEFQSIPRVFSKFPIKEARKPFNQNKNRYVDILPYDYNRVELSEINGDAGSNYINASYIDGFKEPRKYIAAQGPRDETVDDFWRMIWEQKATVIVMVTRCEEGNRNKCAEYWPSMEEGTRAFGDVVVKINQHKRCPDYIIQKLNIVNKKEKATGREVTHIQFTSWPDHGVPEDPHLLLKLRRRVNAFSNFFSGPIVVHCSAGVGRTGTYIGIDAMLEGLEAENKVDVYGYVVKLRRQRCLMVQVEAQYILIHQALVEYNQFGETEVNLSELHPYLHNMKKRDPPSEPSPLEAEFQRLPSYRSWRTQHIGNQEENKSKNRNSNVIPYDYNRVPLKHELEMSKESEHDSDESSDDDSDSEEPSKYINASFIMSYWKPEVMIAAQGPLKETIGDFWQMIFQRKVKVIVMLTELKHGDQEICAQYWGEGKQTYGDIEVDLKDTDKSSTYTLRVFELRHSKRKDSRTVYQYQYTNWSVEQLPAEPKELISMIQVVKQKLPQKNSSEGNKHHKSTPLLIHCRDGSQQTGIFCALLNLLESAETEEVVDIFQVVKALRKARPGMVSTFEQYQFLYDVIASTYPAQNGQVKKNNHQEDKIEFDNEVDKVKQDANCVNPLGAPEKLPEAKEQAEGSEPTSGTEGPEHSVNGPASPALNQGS

[2] = target: T2, Calcitonin receptor (Homo sapiens, UniProt P30988); format: cell membranes, Membrane; details: t47d; note: in other assays of this panel Not Active means under 50% inhibition at 10 µM
T2 sequence (P30988 whole entry): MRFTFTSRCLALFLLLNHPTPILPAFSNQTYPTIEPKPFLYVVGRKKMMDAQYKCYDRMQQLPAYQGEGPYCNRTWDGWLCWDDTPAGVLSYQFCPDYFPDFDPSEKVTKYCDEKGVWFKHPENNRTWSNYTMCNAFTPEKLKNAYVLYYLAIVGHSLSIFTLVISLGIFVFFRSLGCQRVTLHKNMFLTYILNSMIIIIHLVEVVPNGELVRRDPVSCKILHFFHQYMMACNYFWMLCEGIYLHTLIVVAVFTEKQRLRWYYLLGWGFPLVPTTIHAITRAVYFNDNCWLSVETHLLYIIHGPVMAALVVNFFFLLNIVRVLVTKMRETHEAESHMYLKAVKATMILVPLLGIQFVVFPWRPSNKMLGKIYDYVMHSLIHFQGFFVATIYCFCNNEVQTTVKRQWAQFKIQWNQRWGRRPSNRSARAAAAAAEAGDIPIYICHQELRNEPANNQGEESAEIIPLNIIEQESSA

[3] = target: T3, Alpha-1D adrenergic receptor (Homo sapiens, UniProt P25100); format: cell membranes, HEK293, Membrane; details: for Ki: read-out: Ki; for all read-outs here: in other assays of this panel Not Active means under 50% inhibition at 10 µM
T3 sequence (P25100 whole entry): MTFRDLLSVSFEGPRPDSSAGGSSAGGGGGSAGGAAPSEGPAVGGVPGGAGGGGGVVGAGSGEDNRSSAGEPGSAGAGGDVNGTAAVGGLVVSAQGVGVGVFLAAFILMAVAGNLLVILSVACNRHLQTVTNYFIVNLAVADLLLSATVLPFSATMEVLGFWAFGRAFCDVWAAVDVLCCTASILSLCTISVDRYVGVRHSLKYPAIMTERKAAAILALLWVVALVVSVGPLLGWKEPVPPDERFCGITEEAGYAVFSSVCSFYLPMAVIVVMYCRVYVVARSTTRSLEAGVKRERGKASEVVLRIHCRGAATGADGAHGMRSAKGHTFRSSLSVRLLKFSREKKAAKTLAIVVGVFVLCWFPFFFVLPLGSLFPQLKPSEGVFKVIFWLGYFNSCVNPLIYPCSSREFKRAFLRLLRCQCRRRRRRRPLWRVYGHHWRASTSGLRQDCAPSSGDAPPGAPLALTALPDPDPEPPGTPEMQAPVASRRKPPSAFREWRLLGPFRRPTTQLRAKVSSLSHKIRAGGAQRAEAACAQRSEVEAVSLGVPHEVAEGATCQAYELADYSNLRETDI

[4] = target: T4, Leukotriene C4 synthase (Cavia porcellus, UniProt A6XA80); format: tissue-based, Lung;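 note: enzyme inhibition assay of leukotriene C4 synthase, using LTA4 as the substrate; in other assays of this panel Not Active means under 50% inhibition at 10 µM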
T4 sequence (A6XA80 whole entry): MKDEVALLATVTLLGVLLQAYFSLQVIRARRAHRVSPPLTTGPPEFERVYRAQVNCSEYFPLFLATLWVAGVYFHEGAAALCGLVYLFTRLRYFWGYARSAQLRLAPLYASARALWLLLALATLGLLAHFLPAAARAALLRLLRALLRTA

[5] = DRUGMATRIX: Sodium/nucleoside co-transporter radioligand binding (ligand: nitrobenzylthioinosine); format: cell membranes, Cavia porcellus, Dunkin-Hartley, Cerebral cortex, Membrane; details: Not Active = under 50% inhibition at 10 µM
[6] = DRUGMATRIX: Glutamate, AMPA radioligand binding (ligand: [3H] AMPA); format: cell membranes, Rattus norvegicus, Wistar, Cerebral cortex, Membrane; details: Not Active = under 50% inhibition at 10 µM
[7] = target: Substance-P receptor (Homo sapiens, UniProt P25103); format: cell membranes, CHO, Membrane; details: cho; note: in other assays of this panel Not Active means under 50% inhibition at 10 µM
[8] = DRUGMATRIX: Phorbol Ester radioligand binding (ligand: [3H] PDBu); format: cell membranes, Mus musculus, ICR, Brain, Membrane; details: Not Active = under 50% inhibition at 10 µM

Sequence of Substance-P receptor (P25103 whole entry): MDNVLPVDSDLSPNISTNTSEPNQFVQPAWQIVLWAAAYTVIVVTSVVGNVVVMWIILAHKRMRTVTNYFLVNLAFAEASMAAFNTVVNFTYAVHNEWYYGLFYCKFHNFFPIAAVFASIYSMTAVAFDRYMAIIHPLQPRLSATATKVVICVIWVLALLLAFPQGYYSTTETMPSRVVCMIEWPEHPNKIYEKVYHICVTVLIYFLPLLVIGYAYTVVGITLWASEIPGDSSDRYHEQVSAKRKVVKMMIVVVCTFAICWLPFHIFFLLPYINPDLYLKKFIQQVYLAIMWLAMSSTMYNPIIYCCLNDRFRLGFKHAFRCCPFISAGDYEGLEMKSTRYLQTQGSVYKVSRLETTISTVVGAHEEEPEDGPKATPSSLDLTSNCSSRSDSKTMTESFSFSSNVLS

| SMILES | IC50 [1] | IC50 [2] | IC50 ([3]; hek293) | IC50 [4] | IC50 [5] | Ki [5] | IC50 [6] | Ki [6] | IC50 [7] | IC50 [8] | Ki [8] | IC50 ([3]; read-out: IC50) | Ki [3] |
| --- | --- | --- | --- | --- | --- | --- | --- | --- | --- | --- | --- | --- | --- |
| CN/C(=N\CCSCc1nc[nH]c1C)NC#N [CIMETIDINE] | Not Active | Not Active | Not Active | Not Active | Not Active | Not Active | Not Active | Not Active | Not Active | Not Active | Not Active | – | – |
| COc1cc(N)c(Cl)cc1C(=O)NC1CCN(CCCOc2ccc(F)cc2)CC1OC (stereo not given) [CISAPRIDE] | Not Active | Not Active | – | Not Active | Not Active | Not Active | Not Active | Not Active | Not Active | Not Active | Not Active | 0.189 µM | 0.093 µM |
| CCC(=O)O[C@]1(C(=O)CCl)[C@@H](C)C[C@H]2[C@@H]3CCC4=CC(=O)C=C[C@]4(C)[C@@]3(F)[C@@H](O)C[C@@]21C [CLOBETASOL PROPIONATE] | Not Active | Not Active | Not Active | Not Active | Not Active | Not Active | Not Active | Not Active | Not Active | Not Active | Not Active | – | – |
| O=C1CN=C(c2ccccc2Cl)c2cc([N+](=O)[O-])ccc2N1 [CLONAZEPAM] | Not Active | Not Active | Not Active | Not Active | Not Active | Not Active | Not Active | Not Active | Not Active | Not Active | Not Active | – | – |
| Nc1ccn([C@@H]2O[C@H](CO)[C@@H](O)[C@@H]2O)c(=O)n1 [CYTARABINE] | Not Active | Not Active | Not Active | Not Active | Not Active | Not Active | Not Active | Not Active | Not Active | Not Active | Not Active | – | – |
| C[C@@H]1C[C@H]2[C@@H]3CCC4=CC(=O)C=C[C@]4(C)[C@@]3(F)[C@@H](O)C[C@]2(C)[C@H]1C(=O)CO [DESOXIMETASONE] | Not Active | Not Active | Not Active | Not Active | Not Active | Not Active | Not Active | Not Active | Not Active | Not Active | Not Active | – | – |
| C[C@@H]1C[C@H]2[C@@H]3CCC4=CC(=O)C=C[C@]4(C)[C@@]3(F)[C@@H](O)C[C@]2(C)[C@@]1(O)C(=O)CO [DEXAMETHASONE] | Not Active | Not Active | Not Active | Not Active | Not Active | Not Active | Not Active | Not Active | Not Active | Not Active | Not Active | – | – |
| CN(C)CC[C@@H](c1ccc(Cl)cc1)c1ccccn1 [DEXCHLORPHENIRAMINE] | Not Active | Not Active | – | Not Active | Not Active | Not Active | Not Active | Not Active | Not Active | Not Active | Not Active | 33.7 µM | 16.6 µM |
